# Measured values reported in patent US20110224215A1, “PRE-SURGICAL TREATMENT” (GALDERMA LABORATORIES, INC., priority 2007, published 2011).
# How the values were obtained:
# facial skin = details: 0.10% in a gel formulation, applied to facial skin fifteen minutes prior to shaving
# Source text: Fifteen minutes prior to shaving, a person applies 0.10% brimonidine tartrate in a gel formulation to the facial skin where they will shave.
# [1] = system: area of skin where the incision will be made; details: bandage soaked in a solution of 0.25%, applied thirty minutes prior to surgery, removed immediately before incision
# Source text: Thirty minutes prior to undergoing surgery for an appendectomy, a bandage that is soaked in a solution of 0.25% brimonidine is applied to the area of skin where the incision will be made. The bandage is removed immediately before the incision is made.
# [2] = system: patients undergoing LASIK surgery; details: prophylactic dosages prior to LASIK surgery for primary myopia/myopic astigmatism or hyperopic astigmatism; cited from earlier work
SMILES,bleeding from cuts while shaving (facial skin),bleeding and bruising following the surgical procedure [1],hyperemia [2],occurrence of subconjunctival hemorrhage [2]
"Brc1c(N=C2NCCN2)ccc2nccnc12.O=C(O)C(O)C(O)C(=O)O [brimonidine tartrate, 5-bromo-6-(2-imidazolidinylideneamino) quinoxaline L-tartrate]",will prevent excessive bleeding,–,–,–
"Brc1c(N=C2NCCN2)ccc2nccnc12 [brimonidine, 5-bromo-6-(2-imidazolidinylideneamino)quinoxaline]",–,will significantly reduce bleeding and bruising,less hyperemia,less occurrence
